Measured values: ChEMBL document CHEMBL3351635, “Novel nitro(triazole/imidazole)-based heteroarylamides/sulfonamides as potential antitrypanosomal agents” (Eur J Med Chem, 2014)

Assays:
[1] = Selectivity index, ratio of IC50 for rat L6 cells to IC50 for trypomastigote forms of Trypanosoma cruzi Tulahuen C2C4 infected in rat L6 cells; assay type: toxicity, cell-based; settings: read-out: Ratio IC50
[2] = test system: Trypanosoma brucei rhodesiense; test: Antiparasitic activity against bloodstream forms of Trypanosoma brucei rhodesiense STIB 900 assessed as inhibition of growth after 72 hrs by resazurin assay; assay type: functional, organism-based; settings: STIB 900, 72 h
[3] = test system: Trypanosoma brucei brucei; test: Trypanocidal activity against bloodstream forms of Trypanosoma brucei brucei Lister 427 clone 221a overexpressing type I nitroreductase assessed as inhibition of proliferation after 3 days by resazurin assay in absence of tetracycline; assay type: functional, organism-based; settings: 72 h
[4] = test system: Trypanosoma brucei brucei; test: Trypanocidal activity against wild type bloodstream forms of Trypanosoma brucei brucei Lister 427 clone 221a assessed as inhibition of proliferation after 3 days by resazurin assay; assay type: functional, organism-based; settings: 72 h
[5] = test system: Trypanosoma brucei brucei; test: Trypanocidal activity against bloodstream forms of Trypanosoma brucei brucei Lister 427 clone 221a overexpressing type I nitroreductase assessed as inhibition of proliferation after 3 days by resazurin assay in presence of tetracycline; assay type: functional, organism-based; settings: 72 h
[6] = Selectivity index, ratio of IC50 for rat L6 cells to IC50 for bloodstream forms of Trypanosoma brucei rhodesiense STIB 900; assay type: toxicity, cell-based; settings: read-out: Ratio IC50
[7] = Selectivity index, ratio of IC50 for rat L6 cells to IC50 for axenic amastigote forms of Leishmania donovani MHOM/ET/67/L82; assay type: toxicity, cell-based; settings: read-out: Ratio IC50
L6 = test: Cytotoxicity against rat L6 cells after 72 hrs by alamar blue assay; assay type: cell-based; settings: L6, 72 h
Leishmania donovani = test: Antiparasitic activity against axenic amastigote forms of Leishmania donovani MHOM/ET/67/L82 assessed as inhibition of growth after 72 hrs by resazurin assay; assay type: functional, organism-based; settings: MHOM/ET/67/L82, 72 h
Trypanosoma cruzi [8] = test: Ratio of benznidazol IC50 to compound IC50 for trypomastigote forms of Trypanosoma cruzi Tulahuen C2C4 infected in rat L6 cells assessed as inhibition of growth after 96 hrs by inverted microscopy; assay type: functional
[9] = test system: Trypanosoma brucei brucei; test: Ratio of IC50 for bloodstream forms of Trypanosoma brucei brucei Lister 427 clone 221a overexpressing type I nitroreductase in absence of tetracycline to IC50 for bloodstream forms of Trypanosoma brucei brucei Lister 427 clone 221a overexpressing type I nitroreductase in presence of tetracycline; assay type: functional
Trypanosoma cruzi [10] = test: Antiparasitic activity against trypomastigote forms of Trypanosoma cruzi Tulahuen C2C4 infected in rat L6 cells assessed as inhibition of growth after 96 hrs by inverted microscopy; assay type: functional, organism-based; settings: Tulahuen C2C4, L6, 96 h
[11] = molecular target: Sterol 14-alpha demethylase (Trypanosoma cruzi (strain CL Brener), UniProt Q7Z1V1); test: Binding affinity to Trypanosoma cruzi CYP51
[12] = Selectivity ratio of IC50 for trypomastigote forms of Trypanosoma cruzi Tulahuen C2C4 infected in rat L6 cells to IC50 for bloodstream forms of Trypanosoma brucei rhodesiense STIB 900; assay type: functional

Sequence of Sterol 14-alpha demethylase (Q7Z1V1 whole entry): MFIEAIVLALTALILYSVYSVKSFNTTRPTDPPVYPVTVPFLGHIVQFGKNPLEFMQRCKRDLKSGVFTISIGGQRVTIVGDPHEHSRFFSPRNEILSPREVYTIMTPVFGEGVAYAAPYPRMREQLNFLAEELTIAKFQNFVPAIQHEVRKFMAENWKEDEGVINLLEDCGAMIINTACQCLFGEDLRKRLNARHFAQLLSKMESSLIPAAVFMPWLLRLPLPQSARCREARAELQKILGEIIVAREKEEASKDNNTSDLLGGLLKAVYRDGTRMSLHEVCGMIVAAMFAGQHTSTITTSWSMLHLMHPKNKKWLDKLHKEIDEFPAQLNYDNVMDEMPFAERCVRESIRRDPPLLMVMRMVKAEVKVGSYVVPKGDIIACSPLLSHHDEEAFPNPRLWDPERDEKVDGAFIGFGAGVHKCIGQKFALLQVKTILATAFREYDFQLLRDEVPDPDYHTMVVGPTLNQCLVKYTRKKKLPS

SMILES | selectivity ratio [1] | IC50 [2] [µM] | IC50 [3] [µM] | IC50 [4] [µM] | IC50 [5] [µM] | selectivity ratio [6] | selectivity ratio [7] | IC50 (L6) [µM] | IC50 (Leishmania donovani) [µM] | Ratio IC50 (Trypanosoma cruzi [8]) | Ratio IC50 [9] | IC50 (Trypanosoma cruzi [10]) [µM] | Kd [11] [µM] | Ratio IC50 [12]
O=[N+]([O-])c1ncn(CCCCNS(=O)(=O)c2cc(Cl)c(Cl)s2)n1 | 261 | 0.218 | 0.46 | 0.61 | 0.19 | 447 | 9 | 97 | 10.6 | 6.07 | 2.4 | 0.373 | – | –
O=[N+]([O-])c1nccn1CCCNS(=O)(=O)c1cc(Cl)c(Cl)s1 | 16 | 32.7 | – | – | – | 2 | 10 | 75 | 7.35 | 0.48 | – | 4.75 | – | –
O=C(NCCCCn1cnc([N+](=O)[O-])n1)c1ccsc1 | > 194 | 0.81 | 2.49 | 3.02 | 0.31 | > 418 | > 12 | > 339 | 27.7 | 1.3 | 8 | 1.75 | – | –
O=[N+]([O-])c1ncn(CCCNS(=O)(=O)c2ccc(Cl)s2)n1 | 556 | – | – | – | – | 122 | 7 | – | – | 3.6 | 18.9 | 0.438 | 65.2 | –
Cc1nc([N+](=O)[O-])cn1CCCNC(=O)c1sc2ccccc2c1Cl | 6 | 39.4 | – | – | – | 5 | – | 189 | – | 0.05 | – | 32.2 | – | –
O=[N+]([O-])c1nccn1CCCNS(=O)(=O)c1cc(Cl)sc1Cl | 15 | 40.3 | – | – | – | 3 | 8 | 108 | 13.1 | 0.32 | – | 6.99 | – | –
Cc1csc(C(=O)NCCCn2cnc([N+](=O)[O-])n2)c1 | 68 | 0.98 | 6.34 | 9.69 | 0.33 | 176 | 4 | 173 | 46.1 | 0.8 | 19.2 | 2.55 | – | –
CC1CS(=O)(=O)CCN1/N=C/c1ccc([N+](=O)[O-])o1 (stereo unspecified) [NIFURTIMOX] | – | – | – | – | – | – | – | – | – | – | 13.2 | – | – | –
CCCCCCCCCCCCCCCCOP(=O)([O-])OCC[N+](C)(C)C [MILTEFOSINE] | – | – | – | – | – | – | – | – | 0.39 | – | – | – | – | –
Cc1nc([N+](=O)[O-])cn1CCCNS(=O)(=O)c1ccc(Cl)s1 | 3 | 47.2 | – | – | – | 6 | – | 261 | – | 0.02 | – | 102 | – | –
O=C(NCCCn1cnc([N+](=O)[O-])n1)c1ccsc1 | > 89 | 0.915 | 21.2 | 26.8 | 0.29 | > 389 | > 5 | > 356 | 71.2 | 0.57 | 73 | 3.99 | – | –
O=C(NCCCCn1cnc([N+](=O)[O-])n1)c1nc2ccccc2s1 | 364 | 1.73 | 1.39 | 1.36 | 0.36 | 89 | 6 | 154 | 27.7 | 5.36 | 3.9 | 0.422 | – | –
O=C(NCCCn1cnc([N+](=O)[O-])n1)c1ccc(C(F)(F)F)nc1 | > 84 | – | – | – | – | > 82 | – | > 291 | – | 0.5 | – | 3.46 | – | –
O=C(NCCCCn1cnc([N+](=O)[O-])n1)c1sc2ccccc2c1Cl | > 1410 | 0.978 | 0.48 | 0.44 | 0.16 | > 270 | > 23 | > 264 | 11.5 | 12.09 | 3 | 0.187 | – | –
O=[N+]([O-])c1ncn(CCCNS(=O)(=O)c2cc(Cl)c(Cl)s2)n1 | 639 | 0.505 | 17 | 15.5 | 0.52 | 200 | 8 | 101 | 13.2 | 14.31 | 32.6 | 0.158 | – | –
O=C(NCCCn1cnc([N+](=O)[O-])n1)c1cc2ccccc2s1 | 425 | 0.187 | 1.29 | > 0.93 | 0.07 | 665 | 8 | 124 | 14.7 | 7.72 | 18.4 | 0.293 | – | –
Cc1ccoc1C(=O)NCCCn1cnc([N+](=O)[O-])n1 | > 12 | 16.4 | – | – | – | > 22 | > 3 | > 358 | 139 | 0.07 | – | 30.4 | – | –
O=C(Cn1ccnc1[N+](=O)[O-])NCc1ccccc1 [BENZNIDAZOLE] | – | – | – | – | – | – | – | – | – | – | 9.9 | 2.13 | – | –
O=C(NCCCn1cnc([N+](=O)[O-])n1)c1ccnc(Cl)c1 | > 24 | 2.25 | 6.99 | > 7.99 | 5.66 | > 143 | > 4 | > 322 | 82.4 | 0.17 | 1.2 | 13.5 | – | 6
Nc1nc(N)nc(Nc2ccc([As]3SCC(CO)S3)cc2)n1 (stereo unspecified) [MELARSOPROL] | – | – | – | 0.006 | – | – | – | – | – | – | 1 | – | – | –
O=[N+]([O-])c1ncn(CCCCNS(=O)(=O)c2ccc(Cl)s2)n1 | 278 | 0.52 | 21.6 | 22.9 | 0.55 | 247 | 6 | 128 | 20 | 4.42 | 39.2 | 0.462 | – | –
Cc1nc([N+](=O)[O-])cn1CCCNC(=O)c1nc2ccccc2s1 | > 3 | 173 | – | – | – | 2 | – | > 290 | – | 0.01 | – | 105 | – | –
O=[N+]([O-])c1ncn(CCCNS(=O)(=O)c2cc(Cl)sc2Cl)n1 | 216 | 1.59 | 4.25 | 2.94 | 0.22 | 75 | 7 | 119 | 17.8 | 3.7 | 19.3 | 0.552 | – | –
Cc1cc(C(=O)NCCCn2cnc([N+](=O)[O-])n2)c(C)o1 | > 39 | 4.71 | – | – | – | > 73 | > 3 | > 341 | 132 | 0.25 | – | 8.87 | – | –
